Measured values published in patent publication US8940516B2, “Method for the synthesis of chiral cyanohydrins via a hydroxynitrile lyase from brassicaceae” (Evocatal GmbH, priority 2006, dated 2015).

Target: T1, AtHNL (Arabidopsis thaliana, UniProt Q9LFT6)
T1 construct: made in house; host or cells: E. coli BL21(DE3), plasmid pAtHNL (pET28a, NcoI/XhoI)
T1 sequence (Q9LFT6 1-258): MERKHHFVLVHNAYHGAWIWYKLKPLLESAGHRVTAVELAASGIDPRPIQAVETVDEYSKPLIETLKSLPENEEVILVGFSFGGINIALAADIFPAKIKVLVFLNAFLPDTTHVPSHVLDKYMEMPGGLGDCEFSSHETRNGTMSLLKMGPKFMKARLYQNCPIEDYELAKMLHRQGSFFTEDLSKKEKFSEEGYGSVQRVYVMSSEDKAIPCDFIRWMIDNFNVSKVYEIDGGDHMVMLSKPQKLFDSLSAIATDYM
Experiment: Cleavage of mandelonitrile, determination of liberated benzaldehyde (cell test)
Format: biochemical
Conditions: cleavage reaction of cyanohydrin by AtHNL, citrate-phosphate buffer pH 5
Description: Ia) Cleavage of Mandelonitrile(=Benzaldehyde Cyanohydrin), Determination of Liberated Benzaldehyde (Cell Test):
The protocol employed was based on the test described by Bauer et al in 1999 and was only modified slightly. 700 μl of citrate-phosphate buffer, pH 5 (48.5 mL 0.1M citric acid, 51.5 mL 0.2 M dipotassium hydrogen phosphate, qsp 100 ml water) was mixed with 100 μl of enzyme sample in a quartz glass cell and the reaction was started with 200 μl of mandelonitrile solution (60 mM in citrate-phosphate buffer, pH 3.5 (1.82 mL 0.1 M citric acid, 1.06 mL 0.1 M disodium hydrogen phosphate, qsp 100 mL water). The increase in the extinction at 280 nm was monitored for 2 min. It was proportional to the benzaldehyde concentration in the sample. Self-degradation of the cyanohydrin was determined in a control sample without enzyme and subtracted from the values measured for the enzyme sample. In order to determine the remaining activity in the course of the stability tests described in Example 5d, a slightly altered procedure was used: 870 μl of citrate buffer (50 mM, pH 4) was supplemented with 30 μl of enzyme sample, the reaction was started by adding 100 μl of mandelonitrile (60 mM in 50 mM of citrate buffer, pH 2) and monitored for 2 minutes at 280 nm. […] The enzyme activity is, however, much lower with this procedure.

Question: `N#CC(O)c1ccccc1` (stereo not shown) [Benzaldehyde cyanohydrin] was tested. Which “Specify activity (U/mg), Benzaldehyde Test (see Ia above)” value did it give?
Answer: Its value is 12.5 U/mg.
